# Measured values taken from patent US20230132140A1, “METHOD OF TREATING CANCER” (Celloram Inc., priority 2021, published 2023).
# Legend:
# [1] = Immunogenicity of NeoAgs screened by Deepomics algorithm
# COVID-19 patient's PBMC = conditions: cited from earlier work
Sequence,immunogenic characteristics of NeoAgs [1],induction of T cell responses (COVID-19 patient's PBMC)
QAGPVLPTSLE (SEQ ID NO: 5) (listed as Mus sp.) [MT4-8],poorly immunogenic,
RVGGHLRLSGQ (SEQ ID NO: 3) (listed as Mus sp.) [MT4-6],poorly immunogenic,
HRAERPFPEED (SEQ ID NO: 1) (listed as Mus sp.) [MT4-1],poorly immunogenic,
TRFQTLLALHRSYLT (SEQ ID NO: 10) [Spike S236-250 peptide],,able to induce T cell responses
GVRAALPTPR (SEQ ID NO: 4) (listed as Mus sp.) [MT4-7],poorly immunogenic,
LTPSFPVSP (SEQ ID NO: 2) (listed as Mus sp.) [MT4-2],poorly immunogenic,
